Assay results from patent US20110196000A1, “Use of succinate dehydrogenase (SDH) inhibitors in the treatment of plant species from the family of the true grasses” (Bayer CropScience AG, priority 2010, published 2011).

Legend:
Type in all cases: in vivo
[1] = test system: infection-free wheat plants of the cultivar Passat; assay: Glasshouse trial: size of the flag leaf; conditions: at BBCH 83-85
Experimental: (§1) In a glasshouse trial under controlled conditions, the effect of bixafen was investigated on the physiology, morphology and abiotic stress tolerance of infection-free wheat plants of the cultivar […] plants were grown in 10-litre containers over a period of 4 months. The substrate used was standard earth type ED 73 (Fröndenberg, Germany)+C-Horizont+Sand (4:2:1). The supply of nutrient to the plants took place by feeding with a 0.2% strength Flory 2 liquid fertilizer solution (from Euflor, Munich) once every two weeks. The plants were supplied with water as required. In each component of the trial, 10 repetitions were carried out. To prevent infestation with powdery mildew, Proquinazid (Talius® was applied once. The incidence of aphids and spider mites was avoided by treatments with Karate®, Bulldock® and Sumicidin®. The products under test were applied to the plants, in the form of sequential spray sequences (BBCH 39 and 59). The spray volume was 300 l of water per hectare. [table] Morphological parameters measured, additionally, were the length and width, i.e. the size of the flag leaf. This was greatest with the succinate dehydrogenase (SDH) inhibitor bixafen, in comparison to the other comparison fungicides.

[2] = test system: infection-free wheat plants of the cultivar Passat; assay: Glasshouse trial: time of heading (ear emergence); set-up: time of heading of wheat (ears emerged): unit not given here
Experimental: (§2) In a glasshouse trial under controlled conditions, the effect of bixafen was investigated on the physiology, morphology and abiotic stress tolerance of infection-free wheat plants of the cultivar […] plants were grown in 10-litre containers over a period of 4 months. The substrate used was standard earth type ED 73 (Fröndenberg, Germany)+C-Horizont+Sand (4:2:1). The supply of nutrient to the plants took place by feeding with a 0.2% strength Flory 2 liquid fertilizer solution (from Euflor, Munich) once every two weeks. The plants were supplied with water as required. In each component of the trial, 10 repetitions were carried out.

[3] = test system: infection-free wheat plants of the cultivar Passat; assay: Glasshouse trial: green leaf area by visual scoring; conditions: glasshouse
Experimental: as §1, with “The duration” for “Morphological parameters measured, additionally, were the length and width, i.e. the size”, “green coloration of the leaf area” for “flag leaf. This”, “captured on” for “greatest with”, “basis of regular visual scoring of” for “succinate dehydrogenase (SDH) inhibitor bixafen, in comparison to”, “fraction of the green leaf area.” for “other comparison fungicides.”

[4] = test system: infection-free wheat plants of the cultivar Passat; assay: Glasshouse trial: yield components; conditions: glasshouse, sprays at BBCH 39 and 59
wheat variety Ritmo [5] = assay: Plot trial in Germany: green leaf area by visual scoring; conditions: sprays at BBCH 39 and 59
Experimental: In Germany a plot trial was set up with the wheat variety Ritmo in order to investigate the effect of bixafen on the physiology, morphology and abiotic stress tolerance of wheat plants under realistic agricultural conditions. The products under test were applied to the plants, in the form of sequential spray sequences (BBCH 39 and 59). The spray volume was 400 l of water per hectare. In each trial component, 5 repetitions were carried out. [table] The duration of green coloration of the leaf area was captured by regular visual scoring of the fraction of green leaf area.

[6] = test system: infection-free wheat plants of the cultivar Passat; assay: Glasshouse trial: gas exchange activity of wheat ears; conditions: development stage BBCH 75
Experimental: as §2

[7] = test system: infection-free wheat plants of the cultivar Passat; assay: Glasshouse trial: temperature of ears and leaves as measure of transpiration activity
Experimental: as §2

wheat variety Ritmo [8] = assay: Plot trial: yield components; conditions: sprays at BBCH 39 and 59
wheat variety Ritmo [9] = assay: Plot trial: chlorophyll content of leaves (pigment extraction method of Ziegler and Ehle)
[10] = 68 days after second fungicide application (so in the source)
[11] = 75 days after second fungicide application (so in the source)
[12] = 82 days after second fungicide application (so in the source)
[13] = 89 days after second fungicide application (so in the source)
[14] = 96 days after second fungicide application (so in the source)
[15] = 103 days after second fungicide application (so in the source)
[16] = 110 days after second fungicide application (so in the source)
[17] = 117 days after second fungicide application (so in the source)
[18] = 7 days after second fungicide application
[19] = 14 days after second fungicide application
[20] = 21 days after second fungicide application
[21] = 28 days after second fungicide application
[22] = 35 days after second fungicide application
[23] = 42 days after second fungicide application

Question: How did the “Length of the flag leaf” value [1] turn out when CCCN(CC)CC1COC2(CCC(C(C)(C)C)CC2)O1 (centres unmarked) [Spiroxamine] was run?
Answer: 26.1 cm

Question: And the “Width of the flag leaf” value [1]?
Answer: 1.2 cm

Question: What about the “Area of the flag leaf” value ([1]; calculated using the formula A = 0.67 × length × width) of the same compound?
Answer: 20.98 cm^2

Question: And the “Area [rel.] of the flag leaf” value ([1]; untreated = 100)?
Answer: 96 rel.

Question: What about the “time of heading of wheat (ears emerged)” value ([2]; 45 days after sowing) of the same compound?
Answer: 10.8

Question: What about the “time of heading of wheat (ears emerged)” value ([2]; 50 days after sowing) of the same compound?
Answer: 34.1

Question: What about the “time of heading of wheat (ears emerged)” value ([2]; 55 days after sowing) of the same compound?
Answer: 46.4

Question: And the “time of heading of wheat (ears emerged)” value ([2]; 60 days after sowing)?
Answer: 57.5

Question: What about the “time of heading of wheat (ears emerged)” value ([2]; 65 days after sowing) of the same compound?
Answer: 75.5

Question: And the “time of heading of wheat (ears emerged)” value ([2]; 70 days after sowing)?
Answer: 83.4

Question: What about the “time of heading of wheat (ears emerged)” value ([2]; 75 days after sowing) of the same compound?
Answer: 91.1

Question: And the “time of heading of wheat (ears emerged)” value ([2]; 80 days after sowing)?
Answer: 99.1

Question: What about the “time of heading of wheat (ears emerged)” value ([2]; 85 days after sowing) of the same compound?
Answer: 100

Question: And the “green leaf area of the flag leaf (F)” value [3, 10]?
Answer: 100 % leaf area

Question: What about the “green leaf area of the second-from-top leaf (F-1)” value (“green leaf area … (F-1)” below) [3, 10] of the same compound?
Answer: 100 % leaf area

Question: And the “green leaf area of the third-from-top leaf (F-2)” value (shortened to “green leaf area … (F-2)”) [3, 10]?
Answer: 100 % leaf area

Question: And the “green leaf area of the flag leaf (F)” value [3, 11]?
Answer: 100 % leaf area

Question: And the “green leaf area … (F-1)” value [3, 11]?
Answer: 100 % leaf area

Question: And the “green leaf area … (F-2)” value [3, 11]?
Answer: 95 % leaf area

Question: What about the “green leaf area of the flag leaf (F)” value [3, 12] of the same compound?
Answer: 100 % leaf area

Question: And the “green leaf area … (F-1)” value [3, 12]?
Answer: 90 % leaf area

Question: What about the “green leaf area … (F-2)” value [3, 12] of the same compound?
Answer: 73 % leaf area

Question: And the “green leaf area of the flag leaf (F)” value [3, 13]?
Answer: 92 % leaf area

Question: What about the “green leaf area … (F-1)” value [3, 13] of the same compound?
Answer: 77 % leaf area

Question: And the “green leaf area … (F-2)” value [3, 13]?
Answer: 45 % leaf area

Question: And the “green leaf area of the flag leaf (F)” value [3, 14]?
Answer: 80 % leaf area

Question: What about the “green leaf area … (F-1)” value [3, 14] of the same compound?
Answer: 50 % leaf area

Question: And the “green leaf area … (F-2)” value [3, 14]?
Answer: 19 % leaf area

Question: What about the “green leaf area of the flag leaf (F)” value [3, 15] of the same compound?
Answer: 55 % leaf area

Question: What about the “green leaf area … (F-1)” value [3, 15] of the same compound?
Answer: 23 % leaf area

Question: And the “green leaf area … (F-2)” value [3, 15]?
Answer: 7 % leaf area

Question: What about the “green leaf area of the flag leaf (F)” value [3, 16] of the same compound?
Answer: 23 % leaf area

Question: And the “green leaf area … (F-1)” value [3, 16]?
Answer: 6 % leaf area

Question: And the “green leaf area … (F-2)” value [3, 16]?
Answer: 0 % leaf area

Question: And the “green leaf area of the flag leaf (F)” value [3, 17]?
Answer: 3 % leaf area

Question: And the “green leaf area … (F-1)” value [3, 17]?
Answer: 0 % leaf area

Question: What about the “green leaf area … (F-2)” value [3, 17] of the same compound?
Answer: 0 % leaf area

Question: And the Ears/pot [4]?
Answer: 40.9

Question: What about the “Harvest Index” value [4] of the same compound?
Answer: 36.3%

Question: What about the Kernels/ear [4] of the same compound?
Answer: 23.2

Question: And the Straw [4]?
Answer: 58.6 g/pot

Question: And the “TKM (thousand-kernel mass)” value [4]?
Answer: 35.5 g

Question: And the Yield [4]?
Answer: 33.4 g/pot

Question: What about the “green leaf area of the flag leaf” value (wheat variety Ritmo [5]; [18]) of the same compound?
Answer: 98.3 % leaf area

Question: What about the “green leaf area … (F-1)” value (wheat variety Ritmo [5]; [18]) of the same compound?
Answer: 97.4 % leaf area

Question: And the “green leaf area … (F-2)” value (wheat variety Ritmo [5]; [18])?
Answer: 94.1 % leaf area

Question: What about the “green leaf area of the flag leaf” value (wheat variety Ritmo [5]; [19]) of the same compound?
Answer: 97.9 % leaf area

Question: What about the “green leaf area … (F-1)” value (wheat variety Ritmo [5]; [19]) of the same compound?
Answer: 95.8 % leaf area

Question: And the “green leaf area … (F-2)” value (wheat variety Ritmo [5]; [19])?
Answer: 93.3 % leaf area

Question: And the “green leaf area of the flag leaf” value (wheat variety Ritmo [5]; [20])?
Answer: 92.7 % leaf area

Question: What about the “green leaf area … (F-1)” value (wheat variety Ritmo [5]; [20]) of the same compound?
Answer: 85.8 % leaf area

Question: What about the “green leaf area … (F-2)” value (wheat variety Ritmo [5]; [20]) of the same compound?
Answer: 78.1 % leaf area

Question: And the “green leaf area of the flag leaf” value (wheat variety Ritmo [5]; [21])?
Answer: 82.3 % leaf area

Question: What about the “green leaf area … (F-1)” value (wheat variety Ritmo [5]; [21]) of the same compound?
Answer: 69.7 % leaf area

Question: What about the “green leaf area … (F-2)” value (wheat variety Ritmo [5]; [21]) of the same compound?
Answer: 51.7 % leaf area

Question: And the “green leaf area of the flag leaf” value (wheat variety Ritmo [5]; [22])?
Answer: 48.6 % leaf area

Question: And the “green leaf area … (F-1)” value (wheat variety Ritmo [5]; [22])?
Answer: 31.7 % leaf area

Question: What about the “green leaf area … (F-2)” value (wheat variety Ritmo [5]; [22]) of the same compound?
Answer: 15.7 % leaf area

Question: What about the “green leaf area of the flag leaf” value (wheat variety Ritmo [5]; [23]) of the same compound?
Answer: 5.5 % leaf area

Question: What about the “green leaf area … (F-1)” value (wheat variety Ritmo [5]; [23]) of the same compound?
Answer: 0 % leaf area

Question: And the “green leaf area … (F-2)” value (wheat variety Ritmo [5]; [23])?
Answer: 0 % leaf area

Question: And the “green leaf area … (F-1)” value (wheat variety Ritmo [5]; 49 days after second fungicide application)?
Answer: 0 % leaf area

Question: What about the “Photosynthesis (gas exchange activity of wheat ears)” value [6] of the same compound?
Answer: −2.36 a CO2 per ear

Question: What about the “Respiration (gas exchange activity of wheat ears)” value [6] of the same compound?
Answer: 2.82 b CO2 per ear

Question: And the “Temperature (as a measure of the transpiration activity)” value (“Temperature” for short) ([7]; BBCH 75, ear)?
Answer: 23.2 °C

Question: And the “Temperature” value ([7]; BBCH 75, leaf)?
Answer: 22.4 °C

Question: What about the “Temperature” value ([7]; BBCH 80, ear) of the same compound?
Answer: 20.2 °C

Question: And the “Temperature” value ([7]; BBCH 80, leaf)?
Answer: 16.4 °C

Question: What about the “Temperature” value ([7]; BBCH 85, ear) of the same compound?
Answer: 25.1 °C

Question: And the “Temperature” value ([7]; BBCH 85, leaf)?
Answer: 23.7 °C

Question: What about the “Temperature” value ([7]; BBCH 90, ear) of the same compound?
Answer: 24.2 °C

Question: And the “Temperature” value ([7]; BBCH 90, lear (so in the source))?
Answer: 23.2 °C

Question: What about the “Ears/m^2” value (wheat variety Ritmo [8]) of the same compound?
Answer: 409

Question: And the “Harvest Index” value (wheat variety Ritmo [8])?
Answer: 59.3

Question: And the Straw (wheat variety Ritmo [8])?
Answer: 514 g m^−2

Question: What about the “TKM (thousand-kernel mass)” value (wheat variety Ritmo [8]) of the same compound?
Answer: 44.2 g

Question: And the Yield (wheat variety Ritmo [8])?
Answer: 7.7 t ha^−1

Question: What about the Chlorophyll content (wheat variety Ritmo [9]; BBCH 75 (mature milk), leaf F) of the same compound?
Answer: 1471 µg/g

Question: And the Chlorophyll content (wheat variety Ritmo [9]; BBCH 75 (mature milk), leaf F-1)?
Answer: 1245 µg/g

Question: And the Chlorophyll content (wheat variety Ritmo [9]; BBCH 75 (mature milk), leaf F-2)?
Answer: 707 µg/g

Question: And the Chlorophyll content (wheat variety Ritmo [9]; BBCH 85 (mature dough), leaf F)?
Answer: 114 µg/g

Question: And the Chlorophyll content (wheat variety Ritmo [9]; BBCH 85 (mature dough), leaf F-1)?
Answer: 119 µg/g

Question: And the Chlorophyll content (wheat variety Ritmo [9]; BBCH 85 (mature dough), leaf F-2)?
Answer: 147 µg/g
